Experimental data published in US20050245399A1, “Pyrazole derivatives as herbicidal compositions containing them” (ISHIHARA SANGYO KAISHA, LTD., priority 2004, published 2005).

Columns and labels:
Type in all cases: in vivo
[1] = system: prickly sida (Sida spinosa L.), SIDSP; assay: Test Example 2 post-emergence (foliage treatment) herbicidal activity, SIDSP
In short: (§1)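 Each species was evaluated for growth suppression by eye, 0% matching untreated and 100% meaning death, some 20 to 23 days after a single post-emergence foliar treatment applied in 500 L/ha of water carrying 0.1% (v/v) agricultural spreader.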

[2] = system: prickly sida (Sida spinosa L.): SEDSP; assay: Test Example 1 pre-emergence herbicidal activity, SIDSP; settings: Rate 63 g a.i./ha, visually observed 20th to 23rd day after application
In short: (§2)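 Seeds go into pots of upland field soil; one day on, the diluted formulation (500 L/ha water) is sprayed pre-emergence. Effects are scored visually 20 to 23 days post-application as 0–100% growth control.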

[3] = system: japanese ribbon wapato (Sagittaria pygmaea: SA GPY); assay: Test Example 3 water application herbicidal activity (paddy), SAGPY; settings: 63 g a.i./ha, water application under submerged condition, tubers planted, visually observed 14th day after application; 0 = untreated control, 100 = complete kill
In short: (§3)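 Compound, as diluted wettable powder or emulsifiable concentrate, was pipetted into flood water at a set active-ingredient dose. Weeds were treated at 0.5-leaf stage after sowing or tuber planting; 2-leaf rice 4 days post-transplant. Control scored visually, 0 untreated to 100 complete kill, weeds day 14, rice day 21.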

[4] = system: crabgrass (Digitaria sanguinalis L.), DIGSA; assay: Test Example 2 post-emergence (foliage treatment) herbicidal activity, DIGSA
In short: (§4)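 Sow in upland soil; grow to leaf stage (barnyardgrass 1.1-2.1, crabgrass 1.0-2.0, pigweed 0.1-1.5, rice 1.0-2); spray foliage at a fixed active ingredient rate in 500 L/ha water with 0.1% (v/v) spreader; rate growth control visually at 20-23 days on a 0-100% scale.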

[5] = system: soybean (Glycine max Merr.), GLXMA; assay: Test Example 2 post-emergence (foliage treatment) herbicidal activity, GLXMA
In short: as §1

[6] = system: wheat (Triticum aestivum L.), TRZAX; assay: Test Example 2 post-emergence (foliage treatment) herbicidal activity, TRZAX
In short: as §1

[7] = system: soybean (Glycine max Merr.): GLXMA; assay: Test Example 1 pre-emergence herbicidal activity, GLXMA; settings: Rate 63 g a.i./ha, visually observed 20th to 23rd day after application
In short: as §2

[8] = system: rice (Oryza sativa L.: ORYSA); assay: Test Example 3 water application herbicidal activity (paddy), transplanted rice ORYSA; settings: 63 g a.i./ha, water application 4th day after transplantation of 2 leaf stage rice, visually observed 21st day after application; 0 = untreated control, 100 = complete kill
In short: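 Flooded paddy-soil pots in greenhouse; ECHOR and SCPJO sown, SAGPY tubers planted a day later, compound applied into 3–4 cm water at weeds' 0.5-leaf stage. Rice transplanted at 2-leaf stage, treated day 4 after transplanting. Visual growth control 0–100% at 14 days (weeds) and 21 days (rice) after application.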

[9] = system: redroot pigweed (Amaranthus retroflexus L.), AMARE; assay: Test Example 2 post-emergence (foliage treatment) herbicidal activity, AMARE
In short: as §4

[10] = system: velvetleaf (Abutilon theophrasti), ABUTH; assay: Test Example 2 post-emergence (foliage treatment) herbicidal activity, ABUTH
In short: as §1

[11] = system: japanese bulrush (Scirpus juncoides: SCPJO); assay: Test Example 3 water application herbicidal activity (paddy), SCPJO; settings: 63 g a.i./ha, water application under submerged condition at 0.5 leaf stage, visually observed 14th day after application; 0 = untreated control, 100 = complete kill
In short: as §3

[12] = system: velvetleaf (Abutilon theophrasti): ABUTH; assay: Test Example 1 pre-emergence herbicidal activity, ABUTH; settings: Rate 63 g a.i./ha, visually observed 20th to 23rd day after application
In short: as §2

[13] = system: corn (Zea mays L.), ZEAMX; assay: Test Example 2 post-emergence (foliage treatment) herbicidal activity, ZEAMX
In short: as §1

[14] = system: green foxtail (Setaria viridis L.): SETVI; assay: Test Example 1 pre-emergence herbicidal activity, SETVI; settings: Rate 63 g a.i./ha, visually observed 20th to 23rd day after application
In short: as §2

[15] = system: rice (Oryza sativa L.): ORYSA; assay: Test Example 1 pre-emergence herbicidal activity, ORYSA; settings: Rate 63 g a.i./ha, visually observed 20th to 23rd day after application
In short: as §2

[16] = system: rice (Oryza sativa L.), ORYSA; assay: Test Example 2 post-emergence (foliage treatment) herbicidal activity, ORYSA
In short: as §4

[17] = system: barnyardgrass (Echinochloa crus-galli L.), ECHCG; assay: Test Example 2 post-emergence (foliage treatment) herbicidal activity, ECHCG
In short: as §4

[18] = system: wheat (Triticum aestivum L.): TRZAX; assay: Test Example 1 pre-emergence herbicidal activity, TRZAX; settings: Rate 63 g a.i./ha, visually observed 20th to 23rd day after application
In short: as §2

[19] = system: crabgrass (Digitaria sanguinalis L.): DIGSA; assay: Test Example 1 pre-emergence herbicidal activity, DIGSA; settings: Rate 63 g a.i./ha, visually observed 20th to 23rd day after application
In short: as §2

[20] = system: green foxtail (Setaria viridis L.), SETVI; assay: Test Example 2 post-emergence (foliage treatment) herbicidal activity, SETVI
In short: as §1

[21] = system: corn (Zea mays L.): ZEAMX; assay: Test Example 1 pre-emergence herbicidal activity, ZEAMX; settings: Rate 63 g a.i./ha, visually observed 20th to 23rd day after application
In short: as §2

[22] = system: redroot pigweed (Amaranthus retroflexus L.): AMARE; assay: Test Example 1 pre-emergence herbicidal activity, AMARE; settings: Rate 63 g a.i./ha, visually observed 20th to 23rd day after application
In short: as §2

[23] = system: barnyardgrass (Echinochiloa oryzicola: ECHOR); assay: Test Example 3 water application herbicidal activity (paddy), ECHOR; settings: 63 g a.i./ha, water application under submerged condition at 0.5 leaf stage, visually observed 14th day after application; 0 = untreated control, 100 = complete kill
In short: as §3

[24] = system: barnyardgrass (Echinochloa crus-galli L.): ECHCG; assay: Test Example 1 pre-emergence herbicidal activity, ECHCG; settings: Rate 63 g a.i./ha, visually observed 20th to 23rd day after application
In short: as §2

| Compound | Pre-emergence Herbicidal Activity SIDSP (growth controlling degree) [2] [%] | growth controlling degrees (%) SAGPY [3] [%] | Pre-emergence Herbicidal Activity GLXMA (growth controlling degree) [7] [%] | growth controlling degrees (%) ORYSA [8] [%] | growth controlling degrees (%) SCPJO [11] [%] | Pre-emergence Herbicidal Activity ABUTH (growth controlling degree) [12] [%] | Pre-emergence Herbicidal Activity SETVI (growth controlling degree) [14] [%] | Pre-emergence Herbicidal Activity ORYSA (growth controlling degree) [15] [%] | Pre-emergence Herbicidal Activity TRZAX (growth controlling degree) [18] [%] | Pre-emergence Herbicidal Activity DIGSP (growth controlling degree) [19] [%] | Pre-emergence Herbicidal Activity ZEAMX (growth controlling degree) [21] [%] | Pre-emergence Herbicidal Activity AMARE (growth controlling degree) [22] [%] | growth controlling degrees (%) ECHOR [23] [%] | Pre-emergence Herbicidal Activity ECHCG (growth controlling degree) [24] [%] | growth controlling degree, SIDSP ([1]; 63 g a.i./ha) [%] | growth controlling degree, DIGSP ([4]; 63 g a.i./ha) [%] | growth controlling degree, GLXMA ([5]; 63 g a.i./ha) [%] | growth controlling degree, TRZAX ([6]; 63 g a.i./ha) [%] | growth controlling degree, AMARE ([9]; 63 g a.i./ha) [%] | growth controlling degree, ABUTH ([10]; 63 g a.i./ha) [%] | further results |
| --- | --- | --- | --- | --- | --- | --- | --- | --- | --- | --- | --- | --- | --- | --- | --- | --- | --- | --- | --- | --- | --- |
| COc1c(Cl)cc(F)c(-c2nn(C)c(OC(F)F)c2Cl)c1NC(=O)CCc1ccccc1 [Compound 1-21] | 100 | 100 | 10 | 50 | 70 | 100 | 100 | 40 | 0 | 100 | 20 | 100 | 100 | 95 | – | – | – | – | – | – | growth controlling degree, SIDSP ([1]; 31 g a.i./ha): 100%; growth controlling degree, DIGSP ([4]; 31 g a.i./ha): 60%; growth controlling degree, GLXMA ([5]; 31 g a.i./ha): 70%; growth controlling degree, TRZAX ([6]; 31 g a.i./ha): 40%; growth controlling degree, AMARE ([9]; 31 g a.i./ha): 100%; growth controlling degree, ABUTH ([10]; 31 g a.i./ha): 100%; growth controlling degree, ZEAMX ([13]; 31 g a.i./ha): 90%; growth controlling degree, ORYSA ([16]; 31 g a.i./ha): 90%; growth controlling degree, ECHCO ([17]; 31 g a.i./ha): 80%; growth controlling degree, SETVI ([20]; 31 g a.i./ha): 95% |
| COc1c(Cl)cc(F)c(-c2nn(C)c(OC(F)F)c2Cl)c1NC(=O)c1ccccc1F [Compound 1-22] | 100 | 98 | 50 | 40 | 95 | 100 | 100 | 50 | 10 | 100 | 20 | 100 | 100 | 80 | 100 | 100 | 98 | 40 | 100 | 100 | growth controlling degree, ZEAMX ([13]; 63 g a.i./ha): 90%; growth controlling degree, ORYSA ([16]; 63 g a.i./ha): 95%; growth controlling degree, ECHCO ([17]; 63 g a.i./ha): 100%; growth controlling degree, SETVI ([20]; 63 g a.i./ha): 100% |
| COc1c(Cl)cc(F)c(-c2nn(C)c(OC(F)F)c2Cl)c1NC(=O)c1ccccc1Cl [Compound 1-23] | 100 | 98 | 30 | 40 | 80 | 90 | 95 | 40 | 40 | 100 | 0 | 100 | 100 | 80 | 100 | 90 | 98 | 40 | 100 | 100 | growth controlling degree, ZEAMX ([13]; 63 g a.i./ha): 80%; growth controlling degree, ORYSA ([16]; 63 g a.i./ha): 90%; growth controlling degree, ECHCO ([17]; 63 g a.i./ha): 98%; growth controlling degree, SETVI ([20]; 63 g a.i./ha): 100% |
| COc1c(Cl)cc(F)c(-c2nn(C)c(OC(F)F)c2Cl)c1NC(=O)c1ccccc1C [Compound 1-24] | 100 | 90 | 10 | 60 | 80 | 100 | 100 | 60 | 20 | 100 | 10 | 100 | 100 | 95 | 100 | 98 | 100 | 50 | 100 | 100 | growth controlling degree, ZEAMX ([13]; 63 g a.i./ha): 90%; growth controlling degree, ORYSA ([16]; 63 g a.i./ha): 98%; growth controlling degree, ECHCO ([17]; 63 g a.i./ha): 100%; growth controlling degree, SETVI ([20]; 63 g a.i./ha): 100% |
